No end group written: not given here.
Assays:
Bacillus subtilis = assay: MIC, microbroth dilution; conditions: planktonic, 18 hours
Description: (§1) Bacteria were grown in a shaking incubator at 37° C. and 160rpm in 50 ml BHI , using individual colonies retrieved from a fresh overnight TSA-sheep blood plate. The cultures were grown to a density of approximately 1×10^8cells/ml and then diluted to 5×10^5 cells/ml in CAMHB (Mc Farland 0.5). Each well contained 100p.I (50p.I of peptide containing MHB plus 50 μl inoculum). The final cell density was 1×10^5 to 5×10^5/ml. After addition of the cell suspension, plates were incubated at 37° C. for 18 to 24 hours. The optical density at 590 nm (OD590) of each well was measured after 5 seconds of shaking the plate using Perkin Elmer spectrophotometer (1420 Multilabel Counter Vicotr 3). […] Each well, where no growth was observed, was also plated on TSA-sheep blood agar plates, incubated at 37° C. overnight and visually inspected.

bacterial cells = assay: Membrane potential (BacLight kit, DiOC2 red/green fluorescence); format: cell-based; conditions: 25 μg/ml; after 5 minutes
VRE strains = assay: MIC, microbroth dilution; conditions: planktonic, 18 hours
Description: as §1

S. haemolyticus = assay: MIC, microbroth dilution; conditions: planktonic, 18 hours
Description: as §1

[1] = system: Micrococcus luteus ATCC 9341; assay: MIC, microbroth dilution; conditions: planktonic, 18 hours
Description: as §1

S. aureus = format: cell-based, Staphylococcus aureus
Candida albicans SC5314 [2] = assay: Invasion of C. albicans SC5314 into epithelial cell line TR-146; format: cell-based; conditions: invasion 3 h
Description: As discussed herein before, C. albicans Als3 also plays a role in adherence and invasion to epithelial and endothelial cells. […] Here we investigated the effect of external application of interferor peptide F9 on C. albicans SC5314 adherence and invasion to epithelial cells. Thereto, Candida cells were incubated together with the human cells (epithelial cell line TR-146) in the presence of peptide F9 during adhesion (1 h) or invasion (3 h). The amount of adhered and internalized cells was determined by counting using epifluorescence.
The monolayers of TR-146 cell lines were infected with Candida cells as previously described in 6.2.15. After 3 h incubation period of monolayers with Candida cells at 37° C., 5% CO2, the medium above the epithelial cells was aspirated and the monolayers were rinsed three times with 1× PBS to remove fungal cells which were not associated with epithelial cells. Next, the epithelial cells were fixed with 4% Histofix (Roth) for 20 min at 37° C. All fungal cells remaining adherent to the surface were stained for 1 h with a rabbit anti-C. albicans polyclonal antibody (Acris Antibodies, Germany) (dilution 1:2000) and counterstained with a secondary anti-rabbit IgG conjugated with Alexa Fluor 488 (Invitrogen) (dilution 1:5000). After extensive rinsing with 1× PBS, the cells were permeabilized in 0.5% Triton X-100 in water for 5 min. Further, adherent and invading parts of fungal cells within epithelial cells were stained with calcofluor white (dilution 1:100) for 15 min and washed three times with water, for 10 min at 30° C., 180 rpm. Coverslips were mounted inverted onto glass slides and the stained cells were visualized with epifluorescence using a filter set to detect calcofluor white (filter for DAPI) and Alexa Fluor 488 (Leica DFC350 FX, Mannheim, Germany). The percentage of invading C. albicans cells was determined by dividing the number of internalized cells by the total number of adherent cells. At least 100 fungal cells were counted on each coverslip.

Candida albicans SC5314 [3] = assay: In vitro mature C. albicans biofilm formation on polystyrene (XTT reduction assay); format: cell-based; conditions: 250 μM, 50 μM and 10 μM; peptide during adhesion only or during whole biofilm development; p<0.001
Description: The initial screening and search for optimal Als3 candidate interferors was based on the C. albicans SC5314 adhesion assay on 96-well polystyrene plates upon administration of all the peptides at three different concentrations (250 μM, 50 μM and 10 μM). Based on the results obtained with this adhesion assay, we also tested the effect of peptides on mature biofilm development. The final election of the most optimal candidate interferor peptides was based on the results showing reduction in adhesion and mature biofilm formation caused by the lowest concentration of the peptide tested (10 μM or 2.5 μM).
In a next step, lower concentrations of peptide F9 (50 μM, 10 μM and 2.5 μM) were also tested. […] Both assays were performed in 96-well polystyrene plates and quantified by the XTT reduction assay (see material and methods section).
In vitro C. albicans biofilm was studied on three different types of biomaterials, namely flat bottom 96-well polystyrene plate (Greiner Bio-One, Germany), silicone (CS Hyde, USA) and polyurethane triple lumen intravenous catheters (2.4mm diameter) (Arrow International Reading, USA). […] After that, the biofilms were washed twice with 1×PBS and quantified.
The metabolic activity of Candida cells within in vitro biofilms was studied using the XTT reduction assay. […] The intensity of colorimetric change was measured by spectrophotometer (Spectra max Plus 384) at 490 nm. […]

[4] = system: Candida glabrata ATCC2001; assay: C. glabrata adhesion and biofilm formation on 96-well polystyrene plates (XTT); format: cell-based; conditions: 96-well polystyrene plates in vitro
Text: The specificity of interferor peptide F9 was investigated for C. albicans as compared to a distant Candida spp., i.e. Candida glabrata ATCC2001, for biofilm formation inhibition in vitro. The beta-aggregation sequence of the F9 peptide ([…] (SEQ ID NO: 71)) is not present in C. glabrata—the most closely related sequence in C. glabrata is […] (SEQ ID NO: 73). […] We tested the effect of F9 against C. glabrata adhesion and biofilm formation on 96-well polystyrene plates in vitro.

Sequence | MIC (Bacillus subtilis; Bacillus subtilis ATCC 6051) | MIC (Bacillus subtilis; Bacillus subtilis IP 5832) | membrane potential (MP) change (bacterial cells) | MIC (VRE strains; VRE 8) | MIC (VRE strains; VRE 11) | MIC (VRE strains; VRE 12) | MIC (VRE strains; VRE 40) | MIC (VRE strains; VRE 54) | MIC (VRE strains; VRE 60) | MIC (VRE strains; VRE 70) | MIC (S. haemolyticus) | MIC [1] | onset of resistance compared with common antibiotics (S. aureus; S. aureus ATCC, broth microdilution, 4 duplicates) | fold elevation of the MIC (S. aureus; S. aureus clinical strain MRSA 204, passaged at half the MIC over 15 days) | effect on invasion of epithelial cells (Candida albicans SC5314 [2]; 2.5 μM) | decrease of invasion of epithelial cells (Candida albicans SC5314 [2]; 10 μM) | decrease of invasion of epithelial cells (Candida albicans SC5314 [2]; 50 μM) | biofilm formation (metabolic activity compared to control) (Candida albicans SC5314 [3]) | C. glabrata adhesion and biofilm development [4]
RILLGLIRRGSRILLGLIRR [C30] | Bacillus subtilis ATCC 6051: 1.5 μg/ml | Bacillus subtilis IP 5832: 6 μg/ml | full depolarization of the MP | VRE 8: 3 μg/ml | VRE 11: 1.5 μg/ml | VRE 12: 12.5 μg/ml | VRE 40: 3 μg/ml | VRE 54: 3 μg/ml | VRE 60: 3 μg/ml | VRE 70: 1.5 μg/ml | S. haemolyticus: 1.5 μg/ml | Micrococcus luteus ATCC 9341: 3 μg/ml | much slower onset of resistance than Ampicillin | 2 fold |  |  |  |  | 
RKLLFNLGSRNGIVIVATTR [F9] |  |  |  |  |  |  |  |  |  |  |  |  |  |  | did not have any effect on invasion | 15% | 34% | significant reduction in biofilm formation | did not interfere with C. glabrata adhesion and biofilm development
